Read-outs that look alike come from different tables or passages of the source.
What was measured:
[1] = tested on: HIV-1 NL4-3 ΔV370 variant (NLRepRlucP373S/Δ370); format: cell-based
HIV-1 RF = test: Multiple-cycle assay, laboratory strains; format: cell-based; conditions: Human immunodeficiency virus 1
HIV-1 SF-2 = test: Multiple-cycle assay, laboratory strains; format: cell-based; conditions: Human immunodeficiency virus 1; SF-2, CXCR4, MT-2
HIV-1 IIIB = test: Multiple-cycle assay, laboratory strains; format: cell-based; conditions: Human immunodeficiency virus 1, CXCR4, MT-2
HIV-1 NL4-3 [2] = test: Multiple-cycle assay, laboratory strains; format: cell-based; conditions: Human immunodeficiency virus 1, NL43; NL4-3, CXCR4, MT-2
HIV-1 MN = test: Multiple-cycle assay, laboratory strains; format: cell-based; conditions: Human immunodeficiency virus 1, CXCR4, MT-2
HIV-1 Bal = test: Multiple-cycle assay, laboratory strains; format: cell-based; conditions: Human immunodeficiency virus 1, CCR5, PM1
HIV-1 JRFL = test: Multiple-cycle assay, laboratory strains; format: cell-based; conditions: Human immunodeficiency virus 1, CCR5, PM1
HIV-2 CBL-20 = test: Multiple-cycle assay, laboratory strains; format: cell-based; conditions: HIV-2 CBL-20, MT-2
[3] = tested on: subtype B gag/pr recombinant viruses; test: Multiple-cycle Gag/Pr phenotyping assay; format: cell-based, HIV-1
[4] = tested on: subtype C gag/pr recombinant viruses; test: Multiple-cycle Gag/Pr phenotyping assay; format: cell-based, HIV-1
[5] = tested on: V370M virus (recombinant virus with gag/pr genes from a clinical isolate); test: microbe, parasite or virus in culture; format: cell-based, HIV-1; conditions: Human immunodeficiency virus 1, MT2, read-out: EC50 (SD)
[6] = molecular target: HIV-1 reverse transcriptase (Human immunodeficiency virus type 1 group M subtype B, UniProt P03366); test: In vitro HIV-1 reverse transcriptase assay; format: biochemical
HIV-1 integrase = HIV-1 integrase (Human immunodeficiency virus type 1 group M subtype B, UniProt P03366); test: HIV-1 integrase inhibitor binding assay
HIV-1 protease = HIV-1 protease (Human immunodeficiency virus type 1 group M subtype B, UniProt P03366); test: HIV-1 protease assay; format: biochemical
[7] = molecular target: WT HIV-1 VLPs, p25 to p24 (CA/SP1) cleavage (Human immunodeficiency virus type 1 group M subtype B, UniProt P03348); test: HIV-1 VLP protease cleavage assay; format: biochemical; conditions: Western blot
HIV-1 NL4-3 [8] = test: Time-of-addition study, NL4-3-infected B6 cells; format: cell-based; conditions: single cycle, 24 h postinfection
[9] = tested on: HIV-LAI envelope-pseudotyped RepRlucP373SΔenv virus; test: Two-stage single-cycle pseudotype assay (HIV-1 entry assay); format: cell-based
[10] = initial / phase 2a clinical studies; cited from earlier work
in vitro = conditions: dog
[11] = tested on: MJ4, a subtype C molecular clone; test: RT activity in PBMCs; conditions: Human immunodeficiency virus 1, PBMC
HIV-1 Gag (WT LAI VLPs) = HIV-1 Gag (WT LAI VLPs) (Human immunodeficiency virus type 1 group M subtype B, UniProt P03348); test: [3H]BMS-955176-Gag binding (SPA)
[12] = Serum binding assay (ultracentrifugation)
[13] = tested on: HIV-1 subtype CRF01_AE clinical isolates; test: Drug susceptibility assay using clinical isolates in PBMCs; conditions: Human immunodeficiency virus 1, PBMC
[14] = tested on: HIV-1 subtype C clinical isolates; test: as above
[15] = tested on: HIV-1 subtype D clinical isolates; test: as above; conditions: Human immunodeficiency virus 1, PBMC
[16] = tested on: HIV-1 subtype F clinical isolate; test: as above; conditions: Human immunodeficiency virus 1, PBMC
[17] = tested on: HIV-1 group N clinical isolate; test: as above; conditions: Human immunodeficiency virus 1, PBMC
[18] = tested on: HIV-1 group O clinical isolates; test: as above; conditions: Human immunodeficiency virus 1, PBMC

C=C(C)[C@@H]1CC[C@]2(NCCN3CCS(=O)(=O)CC3)CC[C@]3(C)[C@H](CC[C@@H]4[C@@]5(C)CC=C(c6ccc(C(=O)O)cc6)C(C)(C)[C@@H]5CC[C@]43C)[C@@H]12 [BMS-955176]
EC50 ([1]; Human immunodeficiency virus 1, NL43, MT2): 13 nM
EC50 ([1]; Human immunodeficiency virus 1, NL43, MT2, read-out: EC50 (SD)): 13 nM
EC50 (HIV-1 RF): 7.7 ± 1.4 nM
EC50 (HIV-1 SF-2): 11 ± 1.5 nM
EC50 (HIV-1 IIIB): 2.8 ± 0.3 nM
EC50 (HIV-1 NL4-3 [2]): 4.7 ± 2.3 nM
EC50 (HIV-1 MN): 0.9 ± 0.6 nM
EC50 (HIV-1 Bal): 0.7 ± 0.2 nM
EC50 (HIV-1 JRFL): 2.5 ± 0.8 nM
EC50 (HIV-2 CBL-20): completely resistant
EC50 (HIV-2 CBL-20; Human immunodeficiency virus 2, read-out: EC50): > 1200 nM
EC50 ([3]; Human immunodeficiency virus 1, read-out: EC50 (mean), full library, None (WT), n=51): 3 nM
EC50 ([3]; Human immunodeficiency virus 1, read-out: EC50 (mean), full library, T371A/Q/N/S/TT, n=6): 4 nM
EC50 ([3]; Human immunodeficiency virus 1, read-out: EC50 (mean), full library, V362I, n=5): 5.3 nM
EC50 ([3]; Human immunodeficiency virus 1, read-out: EC50 (mean), full library, V370A + ΔT371, n=4): 12 nM
EC50 ([3]; Human immunodeficiency virus 1, read-out: EC50 (mean), full library, V370A, n=7): 2 nM
EC50 ([3]; Human immunodeficiency virus 1, read-out: EC50 (mean), full library, V370I/L/T, n=4): 3 nM
EC50 ([3]; Human immunodeficiency virus 1, read-out: EC50 (mean), full library, V370 M, n=9): 7 nM
EC50 ([3]; Human immunodeficiency virus 1, read-out: EC50 range, V362I-containing viruses, n=5): 2 to 9.4 nM
EC50 ([3]; Human immunodeficiency virus 1, read-out: EC50 range, all subtype B, n=87): 0.7 to 22 nM
EC50 ([3]; Human immunodeficiency virus 1, read-out: mean EC50, all subtype B, n=87): 3.9 ± 3.4 nM
EC50 ([3]; Human immunodeficiency virus 1, read-out: median EC50, V362I-containing viruses, n=5): 5.7 nM
EC50 ([3]; Human immunodeficiency virus 1, read-out: median EC50, WT subtype B (n=51)): 2.5 nM
EC50 ([3]; Human immunodeficiency virus 1, read-out: median EC50, all subtype B, n=87): 2.8 nM
EC50 ([3]; read-out: EC50 (mean), full library, V362I, n=5): 5 nM
EC50 ([4]; Human immunodeficiency virus 1, read-out: EC50 range): 2.1 to 45 nM
EC50 ([4]; Human immunodeficiency virus 1, read-out: mean EC50): 10.9 ± 9.1 nM
EC50 ([4]; Human immunodeficiency virus 1, read-out: median EC50): 8.8 nM
EC50 [5]: 10 nM
IC50 [6]: > 50000 nM
IC50 (HIV-1 integrase): > 15000 nM
IC50 (HIV-1 protease): > 10000 nM
inhibition of conversion of VLP p25 to p24 [7]: inhibited the conversion of HIV-1 WT VLP p25 to p24 in a dose-dependent manner
effect on luciferase signal by time of addition (HIV-1 NL4-3 [8]): did not inhibit luciferase expression when added any time during infection
inhibition of luciferase, compound added at stage 1 (virus production) [9]: inhibiting luciferase production only when added in the first stage
inhibition of luciferase, compound added at stage 2 (infection) [9]: inhibiting luciferase production only when added in the first stage
clinical safety and tolerability [10]: safe and well tolerated
CC50 (in vitro): 3900 nM
EC50 [11]: 3 nM
Ki (HIV-1 Gag (WT LAI VLPs)): 5.6 nM
Kd (HIV-1 Gag (WT LAI VLPs); Kd values, range of 5 experiments): 2.3 to 6 nM
Kd (HIV-1 Gag (WT LAI VLPs); Kd, saturation binding of [3H]BMS-955176 to LAI VLPs): 5.5 nM
human serum binding ([12]; 100% human serum, ultracentrifugation method): 86%
fraction unbound at 1 h, 0.052 µM ([12]; human, serum): 0.14
EC50 ([13]; read-out: Mean EC50 ± SD, PBMCs, AE, 7 isolates): 77 ± 46 nM
EC50 ([13]; read-out: Range EC50, PBMCs, AE, 7 isolates): 10 to 139 nM
EC50 ([14]; Human immunodeficiency virus 1, PBMC, PBMCs, one insensitive subtype C isolate): 1400 nM
EC50 ([14]; Human immunodeficiency virus 1, PBMC, read-out: Mean EC50 ± SD, PBMCs, C, 13 of 14 isolates): 17 ± 11 nM
EC50 ([14]; Human immunodeficiency virus 1, PBMC, read-out: Mean EC50 ± SD, PBMCs, C, 14 isolates): 116 nM
EC50 ([14]; Human immunodeficiency virus 1, PBMC, read-out: Median EC50, PBMCs, C, 13 of 14 isolates): 14 nM
EC50 ([14]; Human immunodeficiency virus 1, PBMC, read-out: Median EC50, PBMCs, C, 14 isolates): 14 nM
EC50 ([14]; Human immunodeficiency virus 1, PBMC, read-out: Range EC50, PBMCs, C, 13 of 14 isolates): 1 to 45 nM
EC50 ([14]; Human immunodeficiency virus 1, PBMC, read-out: median EC50 values, Fig 7, PBMCs, C (Group M)): 15000 nM
EC50 ([14]; read-out: Range EC50, PBMCs, C, 14 isolates): 1 to 1400 nM
EC50 ([15]; read-out: Median EC50): 6 nM
EC50 ([15]; read-out: Range EC50): 1 to 21 nM
EC50 ([16]; read-out: Mean EC50): 5.9 nM
EC50 ([16]; read-out: Median EC50): 6 nM
EC50 ([16]; read-out: Range EC50): 6 nM
EC50 ([17]; read-out: Mean EC50): 7.2 nM
EC50 ([17]; read-out: Median EC50): 7 nM
EC50 ([17]; read-out: Range EC50): 7 nM
EC50 ([18]; read-out: Mean EC50 ± SD, PBMCs, group O, 5 isolates): 170 ± 240 nM
EC50 ([18]; read-out: Median EC50, PBMCs, group O, 5 isolates): 30 nM
EC50 ([18]; read-out: Range EC50, PBMCs, group O, 5 isolates): 1 to 552 nM
